Data from ChEMBL document CHEMBL4706559, “New indolylarylsulfone non-nucleoside reverse transcriptase inhibitors show low nanomolar inhibition of single and double HIV-1 mutant strains” (Eur J Med Chem, 2020).

Legend:
[1] = test system: Human immunodeficiency virus 1; assay: Inhibition of HIV1 p66/p51 reverse transcriptase K103N/Y181C double mutant assessed as apparent Km of substrate at 150 nM using […] as templates in presence of fixed concentration of [3H]dTTP by Michaelis-Menten analysis (reference value: 106+/- 16 nM)
[2] = test system: Human immunodeficiency virus 1; assay: Antiviral activity against HIV1 harboring RT K103N/Y181C double mutant infected in human MT4 cells assessed as protection against virus-induced cytopathic effect by MTT assay; type: functional, organism-based; settings: Human immunodeficiency virus 1, MT4
[3] = test system: Human immunodeficiency virus 1; assay: Resistance index, ratio of EC50 for antiviral activity against HIV1 harboring RT K103N/Y181C double mutant infected in human MT4 cells to EC50 for antiviral activity against HIV1 NL4-3 infected in human MT4 cells; type: functional
[4] = molecular target: Human immunodeficiency virus type 1 reverse transcriptase (Human immunodeficiency virus 1) (UniProt Q72547); assay: Binding affinity to wild type HIV-1 p66/p51 reverse transcriptase/nucleic acid/dTTP ternary complex assessed as association constant using poly(rA)/oligo(dT) as templates in presence of [3H]dTTP
[5] = molecular target: Human immunodeficiency virus type 1 reverse transcriptase (Human immunodeficiency virus 1, UniProt Q72547, K103N); assay: Inhibition of RNA-dependent DNA polymerase activity of recombinant HIV-1 p66/p51 reverse transcriptase K103N mutant assessed as inhibition of [3H]dTTP incorporation using poly(rA)/oligo(dT) as templates incubated for 15 mins by MicroBeta scintillation counting method
[6] = test system: Human immunodeficiency virus 1; assay: Inhibition of HIV1 p66/p51 reverse transcriptase K103N/Y181C double mutant assessed as apparent Vmax at 75 nM using fixed concentration of poly(rA)/oligo(dT) as templates in presence of 2 to 100 uM of [3H]dTTP by Michaelis-Menten analysis (reference value: 9.6 +/- 0.4%)
[7] = molecular target: Human immunodeficiency virus type 1 reverse transcriptase (Human immunodeficiency virus 1, UniProt Q72547); assay: Inhibition of RNA-dependent DNA polymerase activity of wild type recombinant HIV-1 His-tagged p66/p51 reverse transcriptase assessed as inhibition of [3H]dTTP incorporation using poly(rA)/oligo(dT) as templates incubated for 15 mins by MicroBeta scintillation counting method
[8] = test system: Human immunodeficiency virus 1; assay: Resistance index, ratio of EC50 for antiviral activity against HIV1 harboring RT Y188L mutant infected in human MT4 cells to EC50 for antiviral activity against HIV1 NL4-3 infected in human MT4 cells; type: functional
[9] = test system: Human immunodeficiency virus 1; assay: Binding affinity to HIV-1 p66/p51 reverse transcriptase K103N/Y181C double mutant/nucleic acid/dTTP ternary complex assessed as association constant using poly(rA)/oligo(dT) as templates in presence of [3H]dTTP
[10] = Binding affinity to free form of HIV-1 p66/p51 reverse transcriptase K103N/Y181C double mutant using poly(rA)/oligo(dT) as templates in presence of [3H]dTTP; parameters: species or system Human immunodeficiency virus 1
[11] = molecular target: Human immunodeficiency virus type 1 reverse transcriptase (Human immunodeficiency virus 1) (UniProt Q72547); assay: Synergistic inhibition of wild type HIV-1 p66/p51 reverse transcriptase assessed as combination index using poly(rA)/oligo(dT) as templates in presence of [3H]dTTP preincubated with enzyme and AZTTP followed by substrate addition
[12] = molecular target: Human immunodeficiency virus type 1 reverse transcriptase (Human immunodeficiency virus 1) (UniProt Q72547); assay: Binding affinity to free form of wild type HIV-1 p66/p51 reverse transcriptase assessed as dissociation constant using poly(rA)/oligo(dT) as templates in presence of [3H]dTTP
[13] = test system: Human immunodeficiency virus 1; assay: Inhibition of HIV1 p66/p51 reverse transcriptase K103N/Y181C double mutant assessed as apparent Vmax at 75 nM using 10 to 500 uM poly(rA)/oligo(dT) as templates in presence of fixed concentration of [3H]dTTP by Michaelis-Menten analysis (reference value: 12 +/- 1%)
[14] = test system: Human immunodeficiency virus 1; assay: Inhibition of HIV1 p66/p51 reverse transcriptase K103N/Y181C double mutant assessed as apparent Vmax at 300 nM using fixed concentration of poly(rA)/oligo(dT) as templates in presence of 2 to 100 uM of [3H]dTTP by Michaelis-Menten analysis (reference value: 9.6 +/- 0.4%)
[15] = molecular target: Human immunodeficiency virus type 1 reverse transcriptase (Human immunodeficiency virus 1) (UniProt Q72547); assay: Inhibition of wild type HIV1 p66/p51 reverse transcriptase assessed as apparent Vmax at 37.5 nM using 10 to 500 uM poly(rA)/oligo(dT) as templates in presence of fixed concentration of [3H]dTTP by Michaelis-Menten analysis (reference value: 10 +/- 0.5%)
[16] = test system: Human immunodeficiency virus 1; assay: Inhibition of HIV1 p66/p51 reverse transcriptase K103N/Y181C double mutant assessed as apparent Km of substrate at 75 nM using […] as templates in presence of fixed concentration of [3H]dTTP by Michaelis-Menten analysis (reference value: 106+/- 16 nM)
[17] = Selectivity ratio of CC50 for human MT4 cells to EC50 for antiviral activity against HIV-1 NL4-3 infected in human MT4 cells; type: toxicity, cell-based; settings: read-out: Ratio CC50/EC50
[18] = test system: Human immunodeficiency virus 1; assay: Binding affinity to HIV-1 p66/p51 reverse transcriptase K103N/Y181C double mutant/nucleic acid binary complex assessed as association constant using poly(rA)/oligo(dT) as templates in presence of [3H]dTTP
[19] = molecular target: Human immunodeficiency virus type 1 reverse transcriptase (Human immunodeficiency virus 1) (UniProt Q72547); assay: Inhibition of wild type HIV1 p66/p51 reverse transcriptase assessed as apparent Vmax at 75 nM using 10 to 500 uM poly(rA)/oligo(dT) as templates in presence of fixed concentration of [3H]dTTP by Michaelis-Menten analysis (reference value: 10 +/- 0.5%)
[20] = test system: Human immunodeficiency virus 1; assay: Ratio of Kon of HIV-1 p66/p51 reverse transcriptase K103N/Y181C double mutant/nucleic acid/dTTP ternary complex to Kon of free form of HIV-1 p66/p51 reverse transcriptase using poly(rA)/oligo(dT) as templates in presence of [3H]dTTP
[21] = Cytotoxicity against human MT-4 cells assessed as reduction in cell viability by MTT assay; type: cell-based, MT4
[22] = molecular target: Human immunodeficiency virus type 1 reverse transcriptase (Human immunodeficiency virus 1) (UniProt Q72547); assay: Ratio of Koff of wild type HIV-1 p66/p51 reverse transcriptase/nucleic acid binary complex to Koff of free form of wild type HIV-1 p66/p51 reverse transcriptase using poly(rA)/oligo(dT) as templates in presence of [3H]dTTP
[23] = Inhibition of RNA-dependent DNA polymerase activity of recombinant HIV-1 p66/p51 reverse transcriptase K103N/Y181C mutant assessed as inhibition of [3H]dTTP incorporation using poly(rA)/oligo(dT) as templates incubated for 15 mins by MicroBeta scintillation counting method; parameters: species or system Human immunodeficiency virus 1
[24] = test system: Human immunodeficiency virus 1; assay: Antiviral activity against wild type HIV-1 P1 infected in human C8166 cells assessed as reduction in viral RNA production at 25 nM; type: functional; settings: Human immunodeficiency virus 1, P1, C8166
[25] = test system: Human immunodeficiency virus 1; assay: Binding affinity to free form of HIV-1 p66/p51 reverse transcriptase K103N/Y181C double mutant assessed as association constant using poly(rA)/oligo(dT) as templates in presence of [3H]dTTP

Cc1cc(C)cc(S(=O)(=O)c2c(C(=O)NCc3ccccc3O)[nH]c3ccc(Cl)cc23)c1
Km [1]: 0.125 µM | EC50 [2]: 6.2 nM | Ratio EC50 [3]: >8.8 | K [4]: 15 10^-5/nM/s | IC50 [5]: 73 nM | Vmax(app) [6]: 6.2% | IC50 [7]: 83 nM | Ratio EC50 [8]: >30 | K [9]: 42 10^-5/nM/s | Ki [10]: 137 nM | CI [11]: 1.15 | K [12]: 4 10^-3/s | Vmax(app) [13]: 7.7% | Vmax(app) [14]: 1.5% | Vmax(app) [15]: 4.9% | Km [16]: 0.108 µM | selectivity ratio [17]: > 39700 | K [18]: 10 10^-5/nM/s | Vmax(app) [19]: 3.3% | Ratio [20]: 4 | CC50 [21]: 23800 nM | Ratio [22]: 8 | IC50 [23]: 76 nM | inhibition at 0.025 µM [24]: 100% | K [25]: 10 10^-5/nM/s
